Data published in patent publication US10125134B2 (Mirati Therapeutics, Inc., priority 2016, dated 2018).
pIC50: −log10 of the molar value. Structures can show the parent of a compound that is named as a salt. Where two headings read alike, the source gives them in different places.

Tests used:
[1] = test system: NCI-H358 cells (express KRas G12C), Phospho-ERK; assay: Cellular inhibition of KRas G12C: Phospho-ERK in NCI-H358 cells; format: cell-based; conditions: Homo sapiens, pERK(Thr202/Tyr204) normalized with GAPDH, NCI-H358 cells, 3 hours, read-out: IC50
Procedure: The cellular inhibition of KRAs G12C by exemplary compounds of the present invention was determined by measuring the amount of a downstream marker of KRas activity, phosphorylated ERK (“Phospho-ERK”).
Cells were plated in poly-D-Lysine coated 96-well plates at a concentration of 50,000 cells/well and allowed to attach for 8-12 hours. Diluted compounds were then added at a final concentration of 0.5% DMSO. After 3 hours, the medium was removed, 150 μL of 4% formaldehyde was added and the plates were incubated for 20 minutes. The plates were washed with PBS, and permeabilized using 150 μL of ice cold 100% methanol for 10 minutes. Non-specific antibody binding to the plates was blocked using 100 μL Licor Blocking Buffer (Li-Cor Biotechnology, Lincoln Nebr.) for 1 hour at room temperature. Positive control samples and samples lacking cells were parallel processed with test samples as standards.
The amount Phospho-ERK was determined using an antibody specific for the phosphorylated form of ERK and compared to the amount of GAPDH. […] The plates were incubated for 2 hours at room temperature. The plates were washed with PBS+0.05% Tween 20.
Secondary antibodies used to visualize primary antibodies were added as follows: Anti-rabbit-680 diluted 1:1000 and Anti-mouse-800 diluted 1:1000 in Licor Block+0.05% Tween 20 and incubated for 1 hour at room temperature. The plates were washed with PBS+0.05% Tween 20. A 100 μL aliquot of PBS was added to each well and the plates were read on a LICOR AERIUS plate reader.
The pERK(Thr202/Tyr204) signal was normalized with the GAPDH signal and percent of DMSO control values were calculated. IC50 values were generated using a 4 parameter fit of the dose response curve. Key: “A”≥0.0001−≤1 μM; and “B”>1 μM.

KRas G12C = KRas G12C (Homo sapiens, UniProt P01116, C118S/C51S/C80L/G12C); assay: KRas G12C Modification Assay (LCMS detection of covalent adduct); format: binding; conditions: normalized percent of control; tested at 5 μM concentration for 3 hours
Procedure: A 10 μL aliquot of each protein solution was then transferred to a 384 well microtiter plate. Initial compound stocks were generated at fifty times their desired final assay concentration in DMSO.
Exemplary compounds of Formula (I) were diluted 25-fold into K-Ras Assay Buffer to a final of two times their final concentration. A 10 μL aliquot of each diluted compound solution was then added to each of the protein solutions in the microtiter plate to initiate reaction. […] At each time point, the reactions were quenched with 20 μL of a 25 mM acetic acid solution. […] Once all reactions were quenched, the plates were heat sealed and the samples were injected into a LC/MS system for data acquisition.
Samples were injected in their liquid phase onto a C-3 reverse phase column to remove assay buffer and prepare the samples for mass spectrometer. The proteins were eluted from the column using an acetonitrile gradient and fed directly into the mass analyzer. Initial raw data analysis took place in Agilent MassHunter software immediately post data acquisition.
Raw data analysis of the intact protein was exclusively a deconvolution of the multiple charge states of each protein in solution using a maximum entropy deconvolution provided in Mass Hunter. To minimize complexity, only the data over limited mass ranges were considered for analysis, with a minimum of one Dalton mass step intervals. The heights of all masses identified during raw data analysis were exported to be further analyzed in Spotfire® data analysis software.
Final data analysis was a multistep process in the Spotfire® data analysis software package. Briefly, each protein mass was calculated as a percent of the total signal of that sample, that percentage was then normalized to the percentage of signal of the protein in the absence of reactive compounds. Those normalized signals were reported as normalized percent of control (POC). […] Key: “A”≤25% POC; “B”>25% POC−≤50% POC; “C”>50% POC and ND=not determined.

Row | Compound | POC (KRas G12C) | pIC50 ([1]; NCI-H358, 3 h) | pIC50 [1]
1 | C=CC(=O)N1CCN(c2nc(OC(C)CN(C)C)nc3c2CCN(c2cccc4ccccc24)C3)CC1 (centres unmarked) [Example 24, 1-(4-(2-((1-(dimethylamino)propan-2-yl)oxy)-7-(naphthalen-1-yl)-5,6,7,8-tetrahydropyrido[3,4-d]pyrimidin-4-yl)piperazin-1-yl)prop-2-en-1-one] | A (“A”≤25% POC) | < 6.00 | 
2 | C=CC(=O)N1CCN(c2nc(OCCCN(C)C)nc3c2CCN(C(C)c2ccccc2)C3)CC1 (centres unmarked) [Example 25, 1-(4-(2-(3-(dimethylamino)propoxy)-7-(1-phenylethyl)-5,6,7,8-tetrahydropyrido[3,4-d]pyrimidin-4-yl)piperazin-1-yl)prop-2-en-1-one] | A (“A”≤25% POC) |  | < 6.00
3 | C=CC(=O)N1CCN(c2nc(OCCCCN3CCOCC3)nc3c2CCN(c2cc(O)cc4ccccc24)C3)CC1 [Example 35, 1-(4-(7-(3-hydroxynaphthalen-1-yl)-2-(4-morpholinobutoxy)-5,6,7,8-tetrahydropyrido[3,4-d]pyrimidin-4-yl)piperazin-1-yl)prop-2-en-1-one trifluoroacetate] | C (“C”>50% POC) | < 6.00 | 
4 | C=CC(=O)N1CCN(c2nc(O[C@H](C)CN3CCN(C(C)=O)CC3)nc3c2CCN(c2cc(O)cc4ccccc24)C3)CC1 [Example 36, (R)-1-(4-(2-((1-(4-acetylpiperazin-1-yl)propan-2-yl)oxy)-7-(3-hydroxynaphthalen-1-yl)-5,6,7,8-tetrahydropyrido[3,4-d]pyrimidin-4-yl)piperazin-1-yl)prop-2-en-1-one] | C (“C”>50% POC) | < 6.00 | 

Now from value to compound, other results behind:

Row | POC (KRas G12C) | Compound | pIC50 ([1]; NCI-H358, 3 h) | pIC50 [1]
5 | C (“C”>50% POC) | C=CC(=O)N1CCN(c2nc(N3CCN(CCO)CC3)nc3c2CCN(c2cc(O)cc4ccccc24)C3)CC1 [Example 26, 1-(4-(2-(4-(2-hydroxyethyl)piperazin-1-yl)-7-(3-hydroxynaphthalen-1-yl)-5,6,7,8-tetrahydropyrido[3,4-d]pyrimidin-4-yl)piperazin-1-yl)prop-2-en-1-one] | < 6.00 | 
6 | B (“B”>25% POC−≤50% POC) | C=CC(=O)N1CCN(c2nc(OCCN3CCS(=O)(=O)CC3)nc3c2CCN(c2cc(O)cc4ccccc24)C3)CC1 [Example 33, 1-(4-(2-(2-(1,1-dioxidothiomorpholino)ethoxy)-7-(3-hydroxynaphthalen-1-yl)-5,6,7,8-tetrahydropyrido[3,4-d]pyrimidin-4-yl)piperazin-1-yl)prop-2-en-1-one trifluoroacetate] | < 6.00 | 
7 | A (“A”≤25% POC) | C=CC(=O)N1CCN(c2nc(OCCCN3CCS(=O)(=O)CC3)nc3c2CCN(c2cc(O)cc4ccccc24)C3)CC1 [Example 34, 1-(4-(2-(3-(1,1-dioxidothiomorpholino)propoxy)-7-(3-hydroxynaphthalen-1-yl)-5,6,7,8-tetrahydropyrido[3,4-d]pyrimidin-4-yl)piperazin-1-yl)prop-2-en-1-one trifluoroacetate] | < 6.00 | 
8 | C (“C”>50% POC) | C=CC(=O)N1CCN(c2nc(OCCN3CCN(C(C)=O)CC3)nc3c2CCN(c2cc(O)cc4ccccc24)C3)CC1 [Example 37, 1-(4-(2-(2-(4-acetylpiperazin-1-yl)ethoxy)-7-(3-hydroxynaphthalen-1-yl)-5,6,7,8-tetrahydropyrido[3,4-d]pyrimidin-4-yl)piperazin-1-yl)prop-2-en-1-one] | < 6.00 | 
9 | C (“C”>50% POC) | C=CC(=O)N1CCN(c2nc(OCCCN3CCCCC3)nc3c2CCN(c2cc(O)cc4ccccc24)C3)CC1 [Example 38, 1-(4-(7-(3-hydroxynaphthalen-1-yl)-2-(3-(piperidin-1-yl)propoxy)-5,6,7,8-tetrahydropyrido[3,4-d]pyrimidin-4-yl)piperazin-1-yl)prop-2-en-1-one] | 6.00 to 10.00 | 
10 | C (“C”>50% POC) | C=CC(=O)N1CCN(c2nc(OCCCN3CCCC3)nc3c2CCN(c2cc(O)cc4ccccc24)C3)CC1 [Example 39, 1-(4-(7-(3-hydroxynaphthalen-1-yl)-2-(3-(pyrrolidin-1-yl)propoxy)-5,6,7,8-tetrahydropyrido[3,4-d]pyrimidin-4-yl)piperazin-1-yl)prop-2-en-1-one] | 6.00 to 10.00 | 
